pIC50: −log10 of the molar value.
How the values were obtained:
[1] = Inhibition of rabbit stomach K+ stimulated H(+)/K(+) ATPase activity incubated for 30 mins in presence of ATP and KCl by malachite green reagent based assay; format: tissue-based, Oryctolagus cuniculus
[2] = Inhibition of gastric acid secretion in histamine induced Sprague-Dawley rat at 1 mg/kg, iv pretreated with compound for 15 mins followed by histamine dihydrochloride injection and measured after 3 hrs; format: functional; conditions: 3.25 h, time 195 min
[3] = Elimination half life in Sprague-Dawley rat at 8 mg/kg, po by LC-MS/MS analysis; format: ADME, organism-based; conditions: in vivo, read-out: beta t1/2 (converted)
[4] = Cmax in Sprague-Dawley rat at 8 mg/kg, po by LC-MS/MS analysis; format: ADME, organism-based; design: dose 8 mg/kg, route po; conditions: in vivo
[5] = Oral bioavailability in Sprague-Dawley rat at 8 mg/kg by LC-MS/MS analysis; format: ADME, organism-based; conditions: in vivo
[6] = Terminal half life in Sprague-Dawley rat at 2 mg/kg, iv by LC-MS/MS analysis; format: ADME, organism-based; conditions: in vivo, read-out: beta t1/2 (converted)
[7] = AUC (0 to infinity) in Sprague-Dawley rat at 2 mg/kg, iv by LC-MS/MS analysis; format: ADME, organism-based; design: time infinity, dose 2 mg/kg, route iv; conditions: in vivo
[8] = AUC (0 to infinity) in Sprague-Dawley rat at 8 mg/kg, po by LC-MS/MS analysis; format: ADME, organism-based; design: time infinity, dose 8 mg/kg, route po; conditions: in vivo
[9] = Half life in Sprague-Dawley rat at 2 mg/kg, po; format: ADME, organism-based; conditions: in vivo
[10] = AUC (0 to infinity) in Sprague-Dawley rat at 0.75 mg/kg, iv measured up to 24 hrs; format: ADME, organism-based; design: dose 0.75 mg/kg, time < 24 hrs, route iv; conditions: in vivo
[11] = AUC (0 to infinity) in Sprague-Dawley rat at 2 mg/kg, po; format: ADME, organism-based; design: time infinity, dose 2 mg/kg, route po; conditions: in vivo
[12] = Oral bioavailability in Sprague-Dawley rat at 2 mg/kg; format: ADME, organism-based; conditions: in vivo
[13] = Half life in Sprague-Dawley rat at 0.75 mg/kg, iv measured up to 24 hrs; format: ADME, organism-based; conditions: in vivo
[14] = Cmax in Sprague-Dawley rat at 2 mg/kg, po; format: ADME, organism-based; design: dose 2 mg/kg, route po; conditions: in vivo

CN1Cc2nn(Cc3cccc(-c4cccc(C#N)c4)c3)c(-c3ccccc3F)c2C1
pIC50 [1]: 6.40

CN1Cc2nn(Cc3cccc([N+](=O)[O-])c3)c(-c3ccccc3F)c2C1
pIC50 [1]: 6.85

CN1Cc2nn(Cc3cccc(Cl)c3)c(-c3ccccc3F)c2C1
pIC50 [1]: 6.45

CN1Cc2nn(Cc3cccc(OCCC(=O)O)c3)c(-c3ccccc3F)c2C1
pIC50 [1]: 5.74

CN1Cc2nn(Cc3cccc(-c4cccc(F)c4)c3)c(-c3ccccc3F)c2C1
pIC50 [1]: 6.48

CN1Cc2nn(Cc3cccc(-c4ccc(F)cc4)c3)c(-c3ccccc3F)c2C1
pIC50 [1]: 6.47

CC(C)Oc1ccc(-c2c3c(nn2Cc2cccc(O)c2)CN(C)C3)cc1
pIC50 [1]: < 5.00

Cc1ccccc1-c1c2c(nn1Cc1cccc(O)c1)CN(C)C2
pIC50 [1]: 7.01

CN1Cc2nn(Cc3cccc(-c4cccc(N(C)C)c4)c3)c(-c3ccccc3F)c2C1
pIC50 [1]: 6.50

CN1Cc2nn(Cc3cccc(N4CCOCC4)c3)c(-c3ccccc3F)c2C1
pIC50 [1]: 6.39

CN1Cc2nn(Cc3ccccc3)c(-c3ccccc3F)c2C1
pIC50 [1]: 6.06

CN1Cc2nn(Cc3ccoc3)c(-c3ccccc3F)c2C1
pIC50 [1]: 5.49

CN1Cc2c(-c3ccccc3F)nn(S(=O)(=O)c3ccccc3)c2C1
pIC50 [1]: < 5.00

CN1Cc2nn(Cc3cccc(-c4cccc(C(F)(F)F)c4)c3)c(-c3ccccc3F)c2C1
pIC50 [1]: 6.36

CN1Cc2nn(Cc3cccc(-c4ccccc4F)c3)c(-c3ccccc3F)c2C1
pIC50 [1]: 6.42

COC(=O)c1ccccc1-c1c2c(nn1Cc1cccc(O)c1)CN(C)C2
pIC50 [1]: < 5.00

CN1Cc2nn(Cc3ccccc3F)c(-c3ccccc3F)c2C1
pIC50 [1]: 6.09

CN1Cc2cc(S(=O)(=O)c3ccccc3)n(-c3ccccc3F)c2C1
pIC50 [1]: 5.68

CN1Cc2nn(Cc3cc4ccccc4o3)c(-c3ccccc3F)c2C1
pIC50 [1]: 5.37

CN1Cc2nn(Cc3cccc(F)c3)c(-c3ccccc3F)c2C1
pIC50 [1]: 6.47

CN1Cc2nn(Cc3cccc(O)c3)c(-c3cccc(Cl)c3)c2C1
pIC50 [1]: 5.20

CN1Cc2nn(Cc3cccnc3)c(-c3ccccc3F)c2C1
pIC50 [1]: 6.17

CN1Cc2nn(Cc3ccsc3)c(-c3ccccc3F)c2C1
pIC50 [1]: 5.67

CN1Cc2nn(S(=O)(=O)c3cccnc3)c(-c3ccccc3F)c2C1
pIC50 [1]: 5.96

CN1Cc2nn(Cc3cccc(-c4cccc(S(C)(=O)=O)c4)c3)c(-c3ccccc3F)c2C1
pIC50 [1]: 6.89

CN1Cc2nn(Cc3cccc(O)c3)c(-c3ccc(O)cc3)c2C1
pIC50 [1]: 5.45

CN1Cc2nn(Cc3cccc(O)c3)c(-c3ccccc3F)c2C1
pIC50 [1]: 7.11 | inhibition in vivo at 1 mg/kg [2]: 35.6%

CN1Cc2nn(Cc3cccc(O)c3)c(-c3ccccc3Cl)c2C1
pIC50 [1]: 6.98

CN1Cc2nn(Cc3cccc(OCC(N)=O)c3)c(-c3ccccc3F)c2C1
pIC50 [1]: 6.13

CN1Cc2nn(S(=O)(=O)c3ccccc3)c(-c3ccccc3F)c2C1
pIC50 [1]: 5.99

CN1Cc2nn(Cc3cccc(OCCC(N)=O)c3)c(-c3ccccc3F)c2C1
pIC50 [1]: 6.41

CN1Cc2nn(Cc3ccc(F)cc3)c(-c3ccccc3F)c2C1
pIC50 [1]: 6.23

CN1Cc2nn(Cc3cccc(N)c3)c(-c3ccccc3F)c2C1
pIC50 [1]: 6.05

CN1Cc2nn(Cc3cccc(-c4cccc(C(N)=O)c4)c3)c(-c3ccccc3F)c2C1
half-life [3]: 0.8 h | Cmax [4]: 150 ng/mL | bioavailability [5]: 16.4% | half-life [6]: 0.49 h | pIC50 [1]: 7.22 | AUC(0-inf) [7]: 520 ng·h/mL | AUC(0-inf) [8]: 341 ng·h/mL | inhibition in vivo at 1 mg/kg [2]: 86.8%

CN1Cc2nn(Cc3cccc(O)c3)c(-c3cccc(O)c3)c2C1
pIC50 [1]: 5.91

CN1Cc2nn(Cc3cccc(O)c3)c(-c3ccccc3CO)c2C1
pIC50 [1]: < 5.00

CN1Cc2nn(Cc3cccc(O)c3)c(-c3cccnc3)c2C1
pIC50 [1]: 5.38

CN1Cc2nn(Cc3cccc(O)c3)c(-c3cccnc3F)c2C1
pIC50 [1]: 6.31

CN1Cc2nn(Cc3cccc(O)c3)c(-c3ccccc3)c2C1
pIC50 [1]: 5.73

COc1cccc(Cn2nc3c(c2-c2ccccc2F)CN(C)C3)c1
pIC50 [1]: 6.54

Cc1ccc(-c2c3c(nn2Cc2cccc(O)c2)CN(C)C3)c(F)c1
pIC50 [1]: 6.38

CNCc1cc(-c2ccccc2F)n(S(=O)(=O)c2cccnc2)c1 [VONOPRAZAN]
half-life [9]: 1.3 h | pIC50 [1]: 7.31 | AUC(0-inf) [10]: 99 ng·h/mL | AUC(0-inf) [11]: 27 ng·h/mL | bioavailability [12]: 10% | half-life [13]: 1.2 h | inhibition in vivo at 1 mg/kg [2]: 91% | Cmax [14]: 17 ng/mL

From ChEMBL document CHEMBL5143684, “Design, synthesis and biological evaluation of novel 5-methyl-2,4,5,6-tetrahydropyrrolo[3,4-c]pyrazole derivatives as potent potassium-competitive acid blockers” (Bioorg Med Chem, 2022)
